Key:
SMARCA2 = SMARCA2 (Homo sapiens, UniProt P51531); assay: HiBit assay in engineered HT1080 CRISPR knock-in cell, 6 hrs (B series), SMARCA2; type: cell-based; conditions: 6 hrs incubation; for DC50: HT1080 CRISPR knock-in cells, read-out: SMARC A2 HT1080 HiBit DC50; for Dmax: HT-1080, HT1080 CRISPR knock-in cells, read-out: SMARC A2 HT1080 HiBit Dmax (%)
Summary of the method: (§1)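 Protein abundance is measured in HiBiT-tagged HT1080 CRISPR knock-in cells after a 6 hr compound treatment (0.1% DMSO) by lytic Nano-Glo HiBiT luminescence.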

SMARCA4 = SMARCA4 (Homo sapiens, UniProt P51532); assay: HiBit assay in engineered HT1080 CRISPR knock-in cell, 6 hrs (B series), SMARCA4; type: cell-based; conditions: 6 hrs incubation; for DC50: HT1080 CRISPR knock-in cells, read-out: SMARC A4 HT1080 HiBit DC50; for Dmax: HT-1080, HT1080 CRISPR knock-in cells, read-out: SMARC A4 HT1080 HiBit Dmax(%)
Sequence of SMARCA4 (P51532 whole entry): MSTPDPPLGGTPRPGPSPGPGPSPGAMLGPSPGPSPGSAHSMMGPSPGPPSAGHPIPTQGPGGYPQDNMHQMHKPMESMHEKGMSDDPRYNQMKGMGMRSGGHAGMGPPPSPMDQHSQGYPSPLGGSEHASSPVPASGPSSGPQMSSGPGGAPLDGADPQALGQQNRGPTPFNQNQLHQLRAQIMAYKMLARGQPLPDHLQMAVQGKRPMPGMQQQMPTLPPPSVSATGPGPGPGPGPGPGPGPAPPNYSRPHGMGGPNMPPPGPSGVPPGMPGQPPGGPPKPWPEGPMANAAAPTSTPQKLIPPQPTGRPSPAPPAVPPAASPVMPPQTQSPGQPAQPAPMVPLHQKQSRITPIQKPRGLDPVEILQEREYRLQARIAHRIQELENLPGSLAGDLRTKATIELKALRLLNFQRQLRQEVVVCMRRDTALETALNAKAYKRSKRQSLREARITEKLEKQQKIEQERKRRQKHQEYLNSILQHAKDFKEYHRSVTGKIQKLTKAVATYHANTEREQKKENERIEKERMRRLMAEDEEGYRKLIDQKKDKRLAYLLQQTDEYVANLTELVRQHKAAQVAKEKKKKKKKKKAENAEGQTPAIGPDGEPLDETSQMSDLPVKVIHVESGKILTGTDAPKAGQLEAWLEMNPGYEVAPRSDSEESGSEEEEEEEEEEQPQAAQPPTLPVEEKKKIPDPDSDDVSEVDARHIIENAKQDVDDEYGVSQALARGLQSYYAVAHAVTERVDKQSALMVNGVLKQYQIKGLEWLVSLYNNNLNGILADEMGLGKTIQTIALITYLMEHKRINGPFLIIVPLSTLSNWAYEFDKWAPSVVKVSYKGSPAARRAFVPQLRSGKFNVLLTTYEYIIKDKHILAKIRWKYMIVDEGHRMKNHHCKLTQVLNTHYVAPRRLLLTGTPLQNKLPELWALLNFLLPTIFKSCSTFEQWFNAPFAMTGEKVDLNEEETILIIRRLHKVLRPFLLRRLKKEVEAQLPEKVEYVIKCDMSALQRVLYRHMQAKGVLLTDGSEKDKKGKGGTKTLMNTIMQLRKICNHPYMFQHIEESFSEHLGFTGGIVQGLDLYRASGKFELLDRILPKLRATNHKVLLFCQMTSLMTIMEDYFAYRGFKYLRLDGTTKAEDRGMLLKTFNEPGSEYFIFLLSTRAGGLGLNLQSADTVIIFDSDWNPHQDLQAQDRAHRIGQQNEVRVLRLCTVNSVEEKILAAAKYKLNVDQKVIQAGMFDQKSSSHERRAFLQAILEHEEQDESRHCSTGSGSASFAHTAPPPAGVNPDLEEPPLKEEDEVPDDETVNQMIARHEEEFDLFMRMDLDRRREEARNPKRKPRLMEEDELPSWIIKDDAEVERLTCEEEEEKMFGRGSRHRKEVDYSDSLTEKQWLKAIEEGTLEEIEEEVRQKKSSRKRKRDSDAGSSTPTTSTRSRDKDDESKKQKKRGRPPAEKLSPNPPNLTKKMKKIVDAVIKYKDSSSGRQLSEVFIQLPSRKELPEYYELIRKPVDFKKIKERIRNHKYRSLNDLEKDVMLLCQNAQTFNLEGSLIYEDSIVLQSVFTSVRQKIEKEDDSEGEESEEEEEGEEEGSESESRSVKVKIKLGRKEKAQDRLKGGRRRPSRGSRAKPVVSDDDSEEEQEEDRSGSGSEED
Summary of the method: as §1

Sequence of SMARCA2 (P51531 whole entry): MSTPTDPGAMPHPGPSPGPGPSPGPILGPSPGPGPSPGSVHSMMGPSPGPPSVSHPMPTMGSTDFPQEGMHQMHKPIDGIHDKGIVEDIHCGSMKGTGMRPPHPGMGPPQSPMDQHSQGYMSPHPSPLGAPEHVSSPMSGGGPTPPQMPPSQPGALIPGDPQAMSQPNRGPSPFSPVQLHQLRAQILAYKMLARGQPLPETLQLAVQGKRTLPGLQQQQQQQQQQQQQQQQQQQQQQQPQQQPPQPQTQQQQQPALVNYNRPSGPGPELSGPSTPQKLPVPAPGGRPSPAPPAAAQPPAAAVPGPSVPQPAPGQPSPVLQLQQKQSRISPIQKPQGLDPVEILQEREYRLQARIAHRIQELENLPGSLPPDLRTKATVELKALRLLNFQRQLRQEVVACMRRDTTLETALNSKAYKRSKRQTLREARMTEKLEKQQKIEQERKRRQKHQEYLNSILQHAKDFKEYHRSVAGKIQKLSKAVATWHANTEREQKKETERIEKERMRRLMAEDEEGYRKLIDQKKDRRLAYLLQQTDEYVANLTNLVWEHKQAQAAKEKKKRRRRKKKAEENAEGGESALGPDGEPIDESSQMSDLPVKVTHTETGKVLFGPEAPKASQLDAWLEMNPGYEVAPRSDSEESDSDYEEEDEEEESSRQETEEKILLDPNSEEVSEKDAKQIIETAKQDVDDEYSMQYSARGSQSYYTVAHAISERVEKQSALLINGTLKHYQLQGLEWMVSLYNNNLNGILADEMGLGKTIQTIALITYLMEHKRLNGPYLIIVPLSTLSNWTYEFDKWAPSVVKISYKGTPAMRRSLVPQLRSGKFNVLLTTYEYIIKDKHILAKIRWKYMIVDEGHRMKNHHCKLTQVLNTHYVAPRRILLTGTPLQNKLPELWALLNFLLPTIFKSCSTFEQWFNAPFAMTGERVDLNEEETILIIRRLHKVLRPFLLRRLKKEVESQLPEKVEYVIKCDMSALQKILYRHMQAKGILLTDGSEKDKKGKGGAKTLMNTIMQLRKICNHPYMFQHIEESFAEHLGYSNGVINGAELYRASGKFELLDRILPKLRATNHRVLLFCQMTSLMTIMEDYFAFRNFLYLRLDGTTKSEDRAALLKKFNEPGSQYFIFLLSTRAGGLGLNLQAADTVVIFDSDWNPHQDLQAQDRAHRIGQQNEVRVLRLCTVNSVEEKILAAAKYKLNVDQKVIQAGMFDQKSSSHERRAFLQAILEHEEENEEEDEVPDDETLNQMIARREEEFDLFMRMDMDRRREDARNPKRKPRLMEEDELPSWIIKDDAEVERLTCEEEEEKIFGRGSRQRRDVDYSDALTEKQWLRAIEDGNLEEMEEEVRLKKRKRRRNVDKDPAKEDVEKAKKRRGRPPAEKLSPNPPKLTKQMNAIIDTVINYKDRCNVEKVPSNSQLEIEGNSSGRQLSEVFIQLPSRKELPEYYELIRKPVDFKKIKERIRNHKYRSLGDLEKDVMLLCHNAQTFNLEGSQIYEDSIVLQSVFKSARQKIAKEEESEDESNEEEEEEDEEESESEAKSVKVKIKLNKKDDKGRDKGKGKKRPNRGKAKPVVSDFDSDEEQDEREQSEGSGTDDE

Structure (SMILES) | DC50 (SMARCA2) | Dmax (SMARCA2) | DC50 (SMARCA4) | Dmax (SMARCA4)
Cc1ncsc1-c1ccc([C@H](C)NC(=O)[C@@H]2C[C@@H](O)CN2C(=O)[C@@H](c2cc(OCCCn3cc(-c4ccc5c(c4)C(C)(C)c4nc(=O)c6c(Cl)cccc6n4-5)cn3)no2)C(C)C)cc1 [Compound B71, (2S,4R)-1-((R)-2-(3-(3-(4-(4-chloro-7,7-dimethyl-5-oxo-5,7-dihydroindolo[1,2-a]quinazolin-9-yl)-1H-pyrazol-1-yl)propoxy)isoxazol-5-yl)-3-methylbutanoyl)-4-hydroxy-N-((S)-1-(4-(4-methylthiazol-5-yl)phenyl)ethyl)pyrrolidine-2-carboxamide] | 100 to 500 nM | 50 to 69% | > 1000 nM | < 50%
Cc1ncsc1-c1ccc([C@H](C)NC(=O)[C@@H]2C[C@@H](O)CN2C(=O)[C@@H](c2cc(OCCCCN3CCC(c4ccc5c(c4)C(C)(C)c4nc(=O)c6c(Cl)cccc6n4-5)CC3)no2)C(C)C)cc1 [Compound B12, (2S,4R)-1-((R)-2-(3-(4-(4-(4-chloro-7,7-dimethyl-5-oxo-5,7-dihydroindolo[1,2-a]quinazolin-9-yl)piperidin-1-yl)butoxy)isoxazol-5-yl)-3-methylbutanoyl)-4-hydroxy-N-((S)-1-(4-(4-methylthiazol-5-yl)phenyl)ethyl)pyrrolidine-2-carboxamide] | < 100 nM | > 90% | < 100 nM | > 90%
Cc1ncsc1-c1ccc([C@H](CC(=O)NCCCCN2CCC(c3ccc4c(c3)-n3c(nc(=O)c5c(Cl)cccc53)C4(C)C)CC2)NC(=O)[C@@H]2C[C@@H](O)CN2C(=O)[C@@H](NC(=O)C2(F)CC2)C(C)(C)C)cc1 [Compound B33, (2S,4R)—N—((S)-3-((4-(4-(4-chloro-7,7-dimethyl-5-oxo-5,7-dihydroindolo[1,2-a]quinazolin-10-yl)piperidin-1-yl)butyl)amino)-1-(4-(4-methylthiazol-5-yl)phenyl)-3-oxopropyl)-1-((S)-2-(1-fluorocyclopropane-1-carboxamido)-3,3-dimethylbutanoyl)-4-hydroxypyrrolidine-2-carboxamide] | > 1000 nM | < 50% | > 1000 nM | < 50%
Cc1ncsc1-c1ccc([C@H](CN2CCOCC2)NC(=O)[C@@H]2C[C@@H](O)CN2C(=O)[C@H](c2cc(N3CCC(c4ccc5c(c4)C(C)(C)c4nc(=O)c6c(Cl)cccc6n4-5)CC3)no2)C(C)C)cc1 [Compound B109, (2S,4R)-1-(2-(3-(4-(4-chloro-7,7-dimethyl-5-oxo-5,7-dihydroindolo[1,2-a]quinazolin-9-yl)piperidin-1-yl)isoxazol-5-yl)-3-methylbutanoyl)-4-hydroxy-N—((R)-1-(4-(4-methylthiazol-5-yl)phenyl)-2-morpholinoethyl)pyrrolidine-2-carboxamide] | < 100 nM | > 90% | 100 to 500 nM | 50 to 69%
Cc1ncsc1-c1ccc([C@H](C)NC(=O)[C@@H]2C[C@@H](O)CN2C(=O)C(c2cc(CCN3CCC(c4ccc5c(c4)C(C)(C)c4nc(=O)c6c(Cl)cccc6n4-5)CC3)no2)C(C)C)cc1 (stereo partly drawn) [Compound B15, (2S,4R)-1-(2-(3-(2-(4-(4-chloro-7,7-dimethyl-5-oxo-5,7-dihydroindolo[1,2-a]quinazolin-9-yl)piperidin-1-yl)ethyl)isoxazol-5-yl)-3-methylbutanoyl)-4-hydroxy-N-((S)-1-(4-(4-methylthiazol-5-yl)phenyl)ethyl)pyrrolidine-2-carboxamide] | < 100 nM | > 90% | < 100 nM | > 90%
Cc1ncsc1-c1ccc([C@H](C)NC(=O)[C@@H]2C[C@@H](O)CN2C(=O)[C@@H](NC(=O)CCn2cc(-c3ccc4c(c3)-n3c(nc(=O)c5c(Cl)cccc53)C4(C)C)cn2)C(C)(C)C)cc1 [Compound B92, (2S,4R)-1-((S)-2-(3-(4-(4-chloro-7,7-dimethyl-5-oxo-5,7-dihydroindolo[1,2-a]quinazolin-10-yl)-1H-pyrazol-1-yl)propanamido)-3,3-dimethylbutanoyl)-4-hydroxy-N-((S)-1-(4-(4-methylthiazol-5-yl)phenyl)ethyl)pyrrolidine-2-carboxamide] | > 1000 nM | < 50% | > 1000 nM | < 50%
Cc1ncsc1-c1ccc([C@H](C)NC(=O)[C@@H]2C[C@@H](O)CN2C(=O)[C@H](C(C)C)n2cc(CCCCCN3CCC(c4ccc5c(c4)-n4c(nc(=O)c6c(Cl)cccc64)C5(C)C)CC3)nn2)cc1 [Compound B61, (2S,4R)-1-((S)-2-(4-(5-(4-(4-chloro-7,7-dimethyl-5-oxo-5,7-dihydroindolo[1,2-a]quinazolin-10-yl)piperidin-1-yl)pentyl)-1H-1,2,3-triazol-1-yl)-3-methylbutanoyl)-4-hydroxy-N-((S)-1-(4-(4-methylthiazol-5-yl)phenyl)ethyl)pyrrolidine-2-carboxamide] | < 100 nM | > 90% | < 100 nM | 70 to 90%
Cc1cc(-c2scnc2C)ccc1[C@H](C)NC(=O)[C@@H]1C[C@@H](O)CN1C(=O)[C@@H](n1cc([C@H]2CC[C@H](CN3CCC(c4ccc5c(c4)-n4c(nc(=O)c6c(Cl)cccc64)C5(C)C)CC3)CC2)nn1)C(C)(C)C [Compound B149, (2S,4R)-1-((S)-2-(4-((1r,4S)-4-((4-(4-chloro-7,7-dimethyl-5-oxo-5,7-dihydroindolo[1,2-a]quinazolin-10-yl)piperidin-1-yl)methyl)cyclohexyl)-1H-1,2,3-triazol-1-yl)-3,3-dimethylbutanoyl)-4-hydroxy-N-((S)-1-(2-methyl-4-(4-methylthiazol-5-yl)phenyl)ethyl)pyrrolidine-2-carboxamide] | < 100 nM | > 90% | < 100 nM | 70 to 90%
Cc1cc(C(C(=O)N2C[C@H](O)C[C@H]2C(=O)N[C@@H](CCCCCN2CCC(c3ccc4c(c3)-n3c(nc(=O)c5c(Cl)cccc53)C4(C)C)CC2)c2ccc(-c3scnc3C)cc2)C(C)C)on1 (stereo partly drawn) [Compound B84, (2S,4R)-N-((S)-6-(4-(4-chloro-7,7-dimethyl-5-oxo-5,7-dihydroindolo[1,2-a]quinazolin-10-yl)piperidin-1-yl)-1-(4-(4-methylthiazol-5-yl)phenyl)hexyl)-4-hydroxy-1-(3-methyl-2-(3-methylisoxazol-5-yl)butanoyl)pyrrolidine-2-carboxamide] | < 100 nM | > 90% | < 100 nM | > 90%
Cc1ncsc1-c1ccc([C@H](C)NC(=O)[C@@H]2C[C@@H](O)CN2C(=O)[C@@H](n2cc(-c3cccc(CN4CCC(c5ccc6c(c5)-n5c(nc(=O)c7c(Cl)cccc75)C6(C)C)CC4)c3)nn2)C(C)(C)C)cc1 [Compound B119, (2S,4R)-1-((S)-2-(4-(3-((4-(4-chloro-7,7-dimethyl-5-oxo-5,7-dihydroindolo[1,2-a]quinazolin-10-yl)piperidin-1-yl)methyl)phenyl)-1H-1,2,3-triazol-1-yl)-3,3-dimethylbutanoyl)-4-hydroxy-N-((S)-1-(4-(4-methylthiazol-5-yl)phenyl)ethyl)pyrrolidine-2-carboxamide] | < 100 nM | > 90% | < 100 nM | > 90%
C[C@H](NC(=O)[C@@H]1C[C@@H](O)CN1C(=O)[C@@H](n1cc(C2CCC(CN3CCN(c4ccc5c(c4)-n4c(nc(=O)c6c(Cl)cccc64)C54CCCCC4)CC3)CC2)nn1)C(C)(C)C)c1ccc(-c2scnc2C#CCN2CCOCC2)cc1 (stereo partly drawn) [Compound B140, (2S,4R)-1-((S)-2-(4-((1s,4R)-4-((4-(4′-chloro-5′-oxo-5′H-spiro[cyclohexane-1,7′-indolo[1,2-a]quinazolin]-10′-yl)piperazin-1-yl)methyl)cyclohexyl)-1H-1,2,3-triazol-1-yl)-3,3-dimethylbutanoyl)-4-hydroxy-N-((S)-1-(4-(4-(3-morpholinoprop-1-yn-1-yl)thiazol-5-yl)phenyl)ethyl)pyrrolidine-2-carboxamide] | < 100 nM | > 90% | < 100 nM | 50 to 69%
C#Cc1ccc([C@H](C)NC(=O)[C@@H]2C[C@@H](O)CN2C(=O)[C@H](C(C)C)n2cc([C@H]3CC[C@H](CN4CCC(c5ccc6c(c5)-n5c(nc(=O)c7c(Cl)cccc75)C6(C)C)CC4)CC3)nn2)cc1 [Compound B128, (2S,4R)-1-((S)-2-(4-((1r,4S)-4-((4-(4-chloro-7,7-dimethyl-5-oxo-5,7-dihydroindolo[1,2-a]quinazolin-10-yl)piperidin-1-yl)methyl)cyclohexyl)-1H-1,2,3-triazol-1-yl)-3-methylbutanoyl)-N-((S)-1-(4-ethynylphenyl)ethyl)-4-hydroxypyrrolidine-2-carboxamide] | < 100 nM | > 90% | < 100 nM | 70 to 90%
Cc1ncsc1-c1ccc([C@H](C)NC(=O)[C@@H]2C[C@@H](O)CN2C(=O)[C@H](C(C)C)n2cc(C3CCN(CCN4CCC(c5ccc6c(c5)-n5c(nc(=O)c7c(Cl)cccc75)C6(C)C)CC4)CC3)nn2)cc1 [Compound B67, (2S,4R)-1-((S)-2-(4-(1-(2-(4-(4-chloro-7,7-dimethyl-5-oxo-5,7-dihydroindolo[1,2-a]quinazolin-10-yl)piperidin-1-yl)ethyl)piperidin-4-yl)-1H-1,2,3-triazol-1-yl)-3-methylbutanoyl)-4-hydroxy-N-((S)-1-(4-(4-methylthiazol-5-yl)phenyl)ethyl)pyrrolidine-2-carboxamide] | < 100 nM | > 90% | < 100 nM | 70 to 90%

Source: US20260092071A1, “COMPOUNDS AND COMPOSITIONS AS SMARCA2/4 DEGRADERS AND USES THEREOF” (REGENTS OF THE UNIVERSITY OF MICHIGAN, priority 2022, published 2026)
